Results as given in patent US9815851B2, “Pyrrolo carboxamides as modulators of orphan nuclear receptor RAR-related orphan receptor-gamma (RORγ, NR1F3) activity and for the treatment of chronic inflammatory and autoimmune diseases” (PHENEX PHARMACEUTICALS AG, priority 2011, dated 2017).
Where two headings read alike, the source gives them in different places.

Experiments:
[1] = target: T1, RORγ (UniProt P51449); assay: RORγ Gal4 Reporter Gene Assay in 293T cells (firefly and renilla luciferase); format: cell-based, human
T1 sequence (P51449 1-518): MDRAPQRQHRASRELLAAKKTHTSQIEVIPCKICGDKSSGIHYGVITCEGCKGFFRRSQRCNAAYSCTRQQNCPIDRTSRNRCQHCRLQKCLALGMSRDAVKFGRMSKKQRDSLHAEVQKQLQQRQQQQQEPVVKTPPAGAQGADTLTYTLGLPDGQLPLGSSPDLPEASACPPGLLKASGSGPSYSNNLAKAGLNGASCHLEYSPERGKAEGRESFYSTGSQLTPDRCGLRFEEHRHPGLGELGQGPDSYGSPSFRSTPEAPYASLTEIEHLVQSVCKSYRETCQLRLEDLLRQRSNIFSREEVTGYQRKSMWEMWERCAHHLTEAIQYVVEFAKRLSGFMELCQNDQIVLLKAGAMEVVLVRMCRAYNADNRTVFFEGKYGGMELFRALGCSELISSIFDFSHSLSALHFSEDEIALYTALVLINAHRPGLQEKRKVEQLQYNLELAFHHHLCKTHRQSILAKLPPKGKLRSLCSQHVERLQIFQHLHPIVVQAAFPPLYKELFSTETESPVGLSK

[2] = target: T2, RORγ ligand binding domain (LBD) (Homo sapiens, UniProt P51449); assay: TR-FRET Activity Assay (ligand sensing, RORγ-LBD / coactivator peptide interaction, LANCE); format: biochemical
T2 construct: made in house; host or cells: E. coli BL-21 (BL3), vector pDEST15
T2 sequence (P51449 269-508 limits assumed): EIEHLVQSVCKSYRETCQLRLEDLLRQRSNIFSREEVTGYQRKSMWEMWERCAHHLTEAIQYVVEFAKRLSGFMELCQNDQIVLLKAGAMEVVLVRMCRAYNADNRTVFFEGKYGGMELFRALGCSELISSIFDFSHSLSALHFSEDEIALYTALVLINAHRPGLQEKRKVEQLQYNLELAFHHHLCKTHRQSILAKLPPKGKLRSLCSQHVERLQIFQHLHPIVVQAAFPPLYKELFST

[3] = second value of the cell, Gal4 reporter gene assay in 293T cells, firefly luciferase
[4] = third value of the cell, Gal4 reporter gene assay in 293T cells, renilla normalised luciferase
[5] = first value of the cell FRET/FF/REN, TR-FRET activity assay, read-out: pIC50 (FRET) (converted)

| Compound | pIC50 (FF) [1, 3] | pIC50 (REN) [1, 4] | IC50 [2, 5] [nM] | pIC50 (FF) [1] | pIC50 (REN) [1] | IC50 [2] [nM] |
| --- | --- | --- | --- | --- | --- | --- |
| Cc1c(C(=O)NC2CCOCC2)cc(-c2cc(Cl)c(S(N)(=O)=O)c(C(F)(F)F)c2)n1CC1CCCCC1 [19/1] | 6.8 | 6.8 | 501 | – | – | – |
| CC(C)(C)NS(=O)(=O)c1ccc(-c2cc(C(=O)NC3CCOCC3)c(F)n2CC2CCCCC2)cc1C(F)(F)F [20/1] | 7.1 | 7.3 | 251 | – | – | – |
| COC(=O)[C@H]1C[C@H](NC(=O)c2cc(-c3cc(C(C)(C)C)cc(C4(C)CC4)c3)n(CC3CCCCC3)c2F)C1 [20/2] | 7.0 | 7.2 | 316 | – | – | – |
| CC(C)(C)c1cc(-c2cc(C(=O)N[C@H]3C[C@H](C(=O)O)C3)c(F)n2CC2CCCCC2)cc(C2(C)CC2)c1 [20/3] | 7.3 | 7.4 | 631 | – | – | – |
| COC(=O)C(C)(C)CCNC(=O)c1cc(-c2cc(C(C)(C)C)cc(C3(C)CC3)c2)n(CC2CCCCC2)c1F [20/4] | 6.9 | 6.9 | 200 | – | – | – |
| CC(C)(CCNC(=O)c1cc(-c2cc(C(C)(C)C)cc(C3(C)CC3)c2)n(CC2CCCCC2)c1F)C(=O)O [20/5] | 7.0 | 7.0 | 794 | – | – | – |
| CC(C)(C)NS(=O)(=O)c1ccc(-c2cc(C(=O)NCCC(C)(C)C(=O)O)c(F)n2CC2CCCCC2)cc1C(F)(F)F [20/6] | 6.9 | 6.9 | 501 | – | – | – |
| CC(C)(C)NS(=O)(=O)c1ccc(-c2cc(C(=O)N[C@H]3C[C@H](C(=O)O)C3)c(F)n2CC2CCCCC2)cc1C(F)(F)F [20/7] | 6.2 | 6.2 | 398 | – | – | – |
| CC(C)(C)NS(=O)(=O)c1ccc(-c2cc(C(=O)N[C@H]3C[C@H](C(=O)O)C3)c(F)n2CC2CCCCC2)c2ccccc12 [20/8] | 7.0 | 7.0 | 1000 | – | – | – |
| CC(C)(C)NS(=O)(=O)c1ccc(-c2cc(C(=O)NCCC(C)(C)C(=O)O)c(F)n2CC2CCCCC2)c2ccccc12 [20/9] | 7.8 | 7.6 | 1260 | – | – | – |
| CC(C)(C)NS(=O)(=O)c1ccc(-c2cc(C(=O)NC3CCOCC3)c(Cl)n2CC2CCCCC2)c2ccccc12 [22/1] | – | – | – | 6.8/8.4/8.4 | 6.8/8.4/8.4 | 158 |
| CC(C)(C)NS(=O)(=O)c1ccc(-c2cc(C(=O)N[C@H]3C[C@H](C(=O)O)C3)c(Cl)n2CC2CCCCC2)c2ccccc12 [22/2] | 8.1 | 8.0 | 398 | – | – | – |
| Cc1c(C(=O)NC2CCOCC2)cc(C2=NN(S(=O)(=O)c3ccccc3)C3(CCCCC3)C2)n1CC1CCCCC1 [24/1] | 6.3 | 6.4 | 12600 | – | – | – |
| Cc1c(C(=O)NC2COC2)cc(C2=NN(C(=O)C3CCCCC3)C3(CCCCC3)C2)n1CC1CCCCC1 [24/2] | < 4.7 | < 4.7 | 6310 | – | – | – |
| Cc1n[nH]cc1-c1ccc(-c2cc(C(=O)NC3CCOCC3)c(C)n2CC2CCCCC2)cc1C(C)(C)C [26/1] | – | – | – | 6.6/7.4/7.5 | 6.6/7.4/7.5 | 251 |
| Cc1c(C(=O)NC2CCOCC2)cc(-c2ccc(-c3cnn(C(C)(C)C)c3)c(C(C)(C)C)c2)n1CC1CCCCC1 [26/2] | 7.2 | 7.2 | 200 | – | – | – |
| CCn1cc(-c2ccc(-c3cc(C(=O)NC4CCOCC4)c(C)n3CC3CCCCC3)cc2C(C)(C)C)cn1 [26/3] | 6.6 | 6.8 | 794 | – | – | – |
| Cc1c(C(=O)NC2C[S+]([O-])C2)cc(-c2cc(C(C)(C)C)cc(C(C)(C)C)c2)n1CC1CCCCC1 (stereo not drawn) [Example 2, 1-(Cyclohexylmethyl)-5-(3,5-di-tert-butylphenyl)-2-methyl-N-(1-oxidothietan-3-yl)-1H-pyrrole-3-carboxamide] | 7.0 | 7.0 | 251 | – | – | – |
| Cc1c(C(=O)NC2CS(=O)(=O)C2)cc(-c2cc(C(C)(C)C)cc(C(C)(C)C)c2)n1CC1CCCCC1 [Example 3, 1-(Cyclohexylmethyl)-5-(3,5-di-tert-butylphenyl)-N-(1,1-dioxidothietan-3-yl)-2-methyl-1H-pyrrole-3-carboxamide] | – | – | – | 6.6/7.4/7.4 | 6.6/7.4/7.4 | 251 |
| Cc1c(C(=O)NC2COC2)cc(-c2cc(C(=O)NC(C)(C)C)nc(C(C)(C)C)c2)n1CC1CCCCC1 [Example 6, N,6-Di-tert-butyl-4-(1-(cyclohexylmethyl)-5-methyl-4-(oxetan-3-ylcarbamoyl)-1H-pyrrol-2-yl)picolinamide] | – | – | – | 6.2/6.3/6.4 | 6.2/6.3/6.4 | 631 |
| Cc1c(C(=O)NCC2(C)COC2)cc(-c2cc(S(=O)(=O)N3CCCCC3)c3ccccn23)n1CC1CCCCC1 [Example 8, 1-(Cyclohexylmethyl)-2-methyl-N-((3-methyloxetan-3-yl)methyl)-5-(1-(piperidin-1-ylsulfonyl)indolizin-3-yl)-1H-pyrrole-3-carboxamide] | 7.2 | 7.2 | 3980 | – | – | – |

Further lines, with some results ahead:

| pIC50 (FF) [1, 3] | pIC50 (REN) [1, 4] | IC50 [2, 5] [nM] | Compound | pIC50 (FF) [1] | pIC50 (REN) [1] | IC50 [2] [nM] |
| --- | --- | --- | --- | --- | --- | --- |
| 6.6 | 6.8 | 3980 | Cc1c(C(=O)NC2CCOCC2)cc(-c2ccc(-c3cnc(NC(C)C)nc3)c(C(C)(C)C)c2)n1CC1CCCCC1 [26/4] | – | – | – |
| 7.9 | 8.0 | 316 | Cc1c(C(=O)N[C@H]2C[C@H](C(=O)O)C2)cc(-c2ccc(-c3ccnn3C(C)C)c(C(C)(C)C)c2)n1CC1CCCCC1 [26/5] | – | – | – |
| 7.7 | 7.9 | 398 | Cc1c(C(=O)NCCC(C)(C)C(=O)O)cc(-c2ccc(-c3ccnn3C(C)C)c(C(C)(C)C)c2)n1CC1CCCCC1 [26/6] | – | – | – |
| 6.8 | 6.8 | 3160 | Cc1c(C(=O)N[C@H]2C[C@H](C(=O)O)C2)c(Cl)c(-c2cc(C(C)(C)O)cc(C3(C)CC3)c2)n1CC1CCCCC1 [29/1] | – | – | – |
| 7.3 | 7.1 | 2510 | COC(C)(C)c1cc(-c2c(Cl)c(C(=O)N[C@H]3C[C@H](C(=O)O)C3)c(C)n2CC2CCCCC2)cc(C2(C)CC2)c1 [29/2] | – | – | – |
| 6.8 | 6.9 | 316 | Cc1c(C(=O)NC2COC2)cc(-c2cc(C(C)(C)C)cc(C(C)(C)C)c2)n1C(C)C1CCCCC1 (stereo not drawn) [Example 1, 1-(1-Cyclohexylethyl)-5-(3,5-di-tert-butylphenyl)-2-methyl-N-(oxetan-3-yl)-1H-pyrrole-3-carboxamide] | – | – | – |
| 7.0 | 7.2 | 501 | CC(=O)N1CC(NC(=O)c2cc(-c3cc(C(C)(C)C)cc(C(C)(C)C)c3)n(CC3CCCCC3)c2C)C1 [Example 5, N-(1-Acetylazetidin-3-yl)-1-(cyclohexylmethyl)-5-(3,5-di-tert-butylphenyl)-2-methyl-1H-pyrrole-3-carboxamide] | – | – | – |
| 6.8 | 6.9 | 316 | Cc1c(C(=O)NC2COC2)cc(-c2cc(C(C)(C)C)cc(C(C)(C)C)c2)n1S(=O)(=O)N1CCCCC1 [Example 7, 5-(3,5-Di-tert-butylphenyl)-2-methyl-N-(oxetan-3-yl)-1-(piperidin-1-ylsulfonyl)-1H-pyrrole-3-carboxamide] | – | – | – |
| 6.7 | 6.6 | 15800 | Cc1c(C(=O)NC2COC2)cc(-c2cc(C(=O)N3CCCCC3)c3ccccn23)n1CC1CCCCC1 [Example 10/1] | – | – | – |
| 6.5 | 6.5 | 251 | Cc1c(C(=O)NCC(C)(C)C(=O)N2CCOCC2)cc(-c2cc(C(C)(C)C)c3c(c2)C2(CCO3)CC2)n1CC1CCCCC1 [Example 11, 5(8-(tert-Butyl)spiro[chroman-4,1′-cyclopropan]-6-yl)-1-(cyclohexylmethyl)-N-(2,2-dimethyl-3-morpholino-3-oxopropyl)-2-methyl-1H-pyrrole-3-carboxamide] | – | – | – |
| 7.3 | 7.3 | 251 | CNC(=O)C(C)(C)CNC(=O)c1cc(-c2cc(C(C)(C)C)c3c(c2)C2(CCO3)CC2)n(CC2CCCCC2)c1C [Example 11/1] | – | – | – |
| 6.1 | 6.2 | 1000 | Cc1c(C(N)=O)cc(-c2cc(C3CC3)cc(C(C)(C)C)c2)n1CC1CCCCC1 [Example 12, 5-(3-(tert-Butyl)-5-cyclopropylphenyl)-1-(cyclohexylmethyl)-2-methyl-1H-pyrrole-3-carboxamide] | – | – | – |
